{"source": "PubChem BioAssay (NCI)", "assay_in_all_cases": "NCI-60 cell line screen, 48 h", "key": {"M19-MEL melanoma": {"test_system": "M19-MEL melanoma"}, "LOX IMVI melanoma": {"test_system": "LOX IMVI melanoma"}, "SNB-78 CNS": {"test_system": "SNB-78 CNS"}, "OVCAR-4 ovarian": {"test_system": "OVCAR-4 ovarian"}, "DLD-1 colon": {"test_system": "DLD-1 colon"}, "HCT-15 colon": {"test_system": "HCT-15 colon"}, "786-0 renal": {"test_system": "786-0 renal"}, "COLO 205 colon": {"test_system": "COLO 205 colon"}, "XF 498 CNS": {"test_system": "XF 498 CNS"}, "SR leukemia": {"test_system": "SR leukemia"}, "U251 CNS": {"test_system": "U251 CNS"}, "RXF 393 renal": {"test_system": "RXF 393 renal"}, "SF-539 CNS": {"test_system": "SF-539 CNS"}, "EKVX NSCLC": {"test_system": "EKVX NSCLC"}, "HT29 colon": {"test_system": "HT29 colon"}, "TK-10 renal": {"test_system": "TK-10 renal"}, "KM20L2 colon": {"test_system": "KM20L2 colon"}, "LXFL 529 NSCLC": {"test_system": "LXFL 529 NSCLC"}, "SK-MEL-28 melanoma": {"test_system": "SK-MEL-28 melanoma"}, "SW-620 colon": {"test_system": "SW-620 colon"}, "SN12C renal": {"test_system": "SN12C renal"}, "RXF-631 renal": {"test_system": "RXF-631 renal"}, "HCC-2998 colon": {"test_system": "HCC-2998 colon"}, "NCI-H226 lung": {"test_system": "NCI-H226 lung"}, "UACC-62 melanoma": {"test_system": "UACC-62 melanoma"}, "SK-MEL-2 melanoma": {"test_system": "SK-MEL-2 melanoma"}, "M14 melanoma": {"test_system": "M14 melanoma"}, "OVCAR-8 ovarian": {"test_system": "OVCAR-8 ovarian"}, "HOP-62 NSCLC": {"test_system": "HOP-62 NSCLC"}, "K-562 leukemia": {"test_system": "K-562 leukemia"}, "KM12 colon": {"test_system": "KM12 colon"}, "SNB-19 CNS": {"test_system": "SNB-19 CNS"}, "MOLT-4 leukemia": {"test_system": "MOLT-4 leukemia"}, "SF-268 CNS": {"test_system": "SF-268 CNS"}, "DMS 273 small cell lung": {"test_system": "DMS 273 small cell lung"}, "A549 NSCLC": {"test_system": "A549 NSCLC"}, "SK-MEL-5 melanoma": {"test_system": "SK-MEL-5 melanoma"}, "SF-295 CNS": {"test_system": "SF-295 CNS"}, "NCI-H460 lung": {"test_system": "NCI-H460 lung"}, "NCI-H23 lung": {"test_system": "NCI-H23 lung"}, "OVCAR-5 ovarian": {"test_system": "OVCAR-5 ovarian"}, "ACHN renal": {"test_system": "ACHN renal"}, "NCI-H522 lung": {"test_system": "NCI-H522 lung"}, "HCT-116 colon": {"test_system": "HCT-116 colon"}, "HL-60(TB) leukemia": {"test_system": "HL-60(TB) leukemia"}, "CCRF-CEM leukemia": {"test_system": "CCRF-CEM leukemia"}, "OVCAR-3 ovarian": {"test_system": "OVCAR-3 ovarian"}}, "note": "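Compound exposure: 48 hours, 5 concentrations, 96-well plates. TGI: concentration producing complete growth inhibition.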", "data": [{"smiles": "COc1ccc2cc1Oc1ccc(cc1)CC1c3cc4c(cc3CCN1C)Oc1c(OC)cc3c(c1O4)C(C2)N(C)CC3", "note": "(configuration not stated)", "values": [{"measurement": "TGI", "setting": "M19-MEL melanoma", "result": 14.3, "unit": "µM"}, {"measurement": "TGI", "setting": "LOX IMVI melanoma", "result": 2.81, "unit": "µM"}, {"measurement": "TGI", "setting": "SNB-78 CNS", "result": 48, "unit": "µM"}, {"measurement": "TGI", "setting": "OVCAR-4 ovarian", "result": 3.03, "unit": "µM"}, {"measurement": "TGI", "setting": "DLD-1 colon", "result": 9.62, "unit": "µM"}, {"measurement": "TGI", "setting": "HCT-15 colon", "result": 5.82, "unit": "µM"}, {"measurement": "TGI", "setting": "786-0 renal", "result": 23, "unit": "µM"}, {"measurement": "TGI", "setting": "COLO 205 colon", "result": 2.83, "unit": "µM"}, {"measurement": "TGI", "setting": "XF 498 CNS", "result": 3.41, "unit": "µM"}, {"measurement": "TGI", "setting": "SR leukemia", "result": 4.68, "unit": "µM"}, {"measurement": "TGI", "setting": "U251 CNS", "result": 4.47, "unit": "µM"}, {"measurement": "TGI", "setting": "RXF 393 renal", "result": 7.93, "unit": "µM"}, {"measurement": "TGI", "setting": "SF-539 CNS", "result": 3.9, "unit": "µM"}, {"measurement": "TGI", "setting": "EKVX NSCLC", "result": 24.2, "unit": "µM"}, {"measurement": "TGI", "setting": "HT29 colon", "result": 4.77, "unit": "µM"}, {"measurement": "TGI", "setting": "TK-10 renal", "result": 31.3, "unit": "µM"}, {"measurement": "TGI", "setting": "KM20L2 colon", "result": 9.25, "unit": "µM"}, {"measurement": "TGI", "setting": "LXFL 529 NSCLC", "result": 11, "unit": "µM"}, {"measurement": "TGI", "setting": "SK-MEL-28 melanoma", "result": 2.91, "unit": "µM"}, {"measurement": "TGI", "setting": "SW-620 colon", "result": 3.79, "unit": "µM"}, {"measurement": "TGI", "setting": "SN12C renal", "result": 3.62, "unit": "µM"}, {"measurement": "TGI", "setting": "RXF-631 renal", "result": 31.1, "unit": "µM"}, {"measurement": "TGI", "setting": "HCC-2998 colon", "result": 9.86, "unit": "µM"}, {"measurement": "TGI", "setting": "NCI-H226 lung", "result": 10.7, "unit": "µM"}, {"measurement": "TGI", "setting": "UACC-62 melanoma", "result": 10.5, "unit": "µM"}, {"measurement": "TGI", "setting": "SK-MEL-2 melanoma", "result": 6.53, "unit": "µM"}, {"measurement": "TGI", "setting": "M14 melanoma", "result": 3, "unit": "µM"}, {"measurement": "TGI", "setting": "OVCAR-8 ovarian", "result": 5.45, "unit": "µM"}, {"measurement": "TGI", "setting": "HOP-62 NSCLC", "result": 28, "unit": "µM"}, {"measurement": "TGI", "setting": "K-562 leukemia", "result": 6.02, "unit": "µM"}, {"measurement": "TGI", "setting": "KM12 colon", "result": 4.57, "unit": "µM"}, {"measurement": "TGI", "setting": "SNB-19 CNS", "result": 13.5, "unit": "µM"}, {"measurement": "TGI", "setting": "MOLT-4 leukemia", "result": 4.73, "unit": "µM"}, {"measurement": "TGI", "setting": "SF-268 CNS", "result": 13.1, "unit": "µM"}, {"measurement": "TGI", "setting": "DMS 273 small cell lung", "result": 3.02, "unit": "µM"}, {"measurement": "TGI", "setting": "A549 NSCLC", "result": 21.4, "unit": "µM"}, {"measurement": "TGI", "setting": "SK-MEL-5 melanoma", "result": 21.1, "unit": "µM"}, {"measurement": "TGI", "setting": "SF-295 CNS", "result": 3.81, "unit": "µM"}, {"measurement": "TGI", "setting": "NCI-H460 lung", "result": 3.6, "unit": "µM"}, {"measurement": "TGI", "setting": "NCI-H23 lung", "result": 18.2, "unit": "µM"}, {"measurement": "TGI", "setting": "OVCAR-5 ovarian", "result": 26.5, "unit": "µM"}, {"measurement": "TGI", "setting": "ACHN renal", "result": 17.9, "unit": "µM"}, {"measurement": "TGI", "setting": "NCI-H522 lung", "result": 4.67, "unit": "µM"}, {"measurement": "TGI", "setting": "HCT-116 colon", "result": 3.21, "unit": "µM"}, {"measurement": "TGI", "setting": "HL-60(TB) leukemia", "result": 4.25, "unit": "µM"}, {"measurement": "TGI", "setting": "CCRF-CEM leukemia", "result": 6.69, "unit": "µM"}, {"measurement": "TGI", "setting": "OVCAR-3 ovarian", "result": 19.5, "unit": "µM"}]}]}
